Among the data in US5519021A, “Benzoxazinones as inhibitors of HIV reverse transcriptase” (priority 1995, dated 1996) are IC50 values, retold here.

One experiment addresses T1, A17 RT (Human immunodeficiency virus type 1 group M subtype B, UniProt P04585, K690N/Y768C).
T1 construct: A17 RT was employed in the assay; made in house; host or cells: bacteria
Nature of the experiment: biochemical. Also on record: species or system HIV-1. As to the method: (§1) The assay measures the incorporation of tritiated deoxyguanosine monophosphate by recombinant HIV reverse transcriptase (HIV RTR) (or other RT) into acid-precipitable cDNA at the Km values of dGTP and poly r(C).cndot.oligo d(G)12-18.
(§2) The assays were carried out in 55 mM Tris (pH 8.2)-30 mM KCl-30 mM MgCl2 -1 mM dithiothreitol-20 μg of rC:dG 12-18 (Pharmacia) per ml-8 mM [^3 H]dGTP (New England Nuclear)-0.01% Triton X-100-50 mM ethylene glycol-bis(β-amino-ethyl ether)-N,N,N',N'-tetraacetic acid (EGTA)-1 mg of bovine serum albumin per ml. After 60 min of incubation at 37° C., acid-precipitable material was collected onto glass fiber filters by using a semiautomatic cell harvester. Bacterial cell extracts containing RT were diluted to within the linear range of the assay, and activity was determined in the presence and absence of inhibitor. Purified HIV-1 RT heterodimer produced in E. coli also served as a control.
For the double mutant assay (dm), A17 RT was employed in the assay. […] Results are measured as IC50 dm in nanomoles/liter.

The target in experiment [1] is T2, recombinant HIV reverse transcriptase (HIV RTR) (Human immunodeficiency virus type 1 group M subtype B, UniProt P04585).
T2 construct: recombinant HIV reverse transcriptase (HIV RTR); made in house; host or cells: E. coli
The experiment is described as follows: Reverse transcriptase assay (wild type). Type of experiment: biochemical, HIV-1. The settings on record: wild-type RT, read-out: IC*50 wt. As to the method: as §1, §2

Read-outs that look alike come from different tables or passages of the source.

Consider `COc1ccc(C#CC2(C(F)(F)F)OC(=O)Nc3ccc(Cl)cc32)cc1` (stereo not drawn), for which the IC50 against A17 RT is 4100 nM; in experiment [1] (Table I), 58 nM. For `O=C1Nc2ccc(Cl)cc2C(C#Cc2ccccc2)(C(F)(F)Cl)O1` (racemic) [Compound 5, (+/-) 4-(1-Chloro-1,1-difluoromethyl)-4-(2-phenylethynyl)-6-chloro-1,4-dihydro-2H-3,1-benzoxazin-2-one], the values for the IC50 (against A17 RT; in experiment [1] (Table I)) were 350 nM and 12 nM, respectively. The matching figures for `O=C1Nc2ccc(Cl)cc2C(C#CCN2CCCC2)(C(F)(F)F)O1` (racemic) [Compound 7, (+/-) 6-Chloro-4-(1,1,1-trifluoromethyl)-4-[(3-(1-pyrrolidinyl))-1-propynyl] -1,4-dihydro-2H-3,1-benzoxazin-2-one]: 3460 nM and 91 nM. In the same order, the values of `C=CCCC1(C(F)(F)F)OC(=O)Nc2ccc(Cl)cc21` (racemic) [Compound 15, (+/-) 4-(1,1,1,-trifluoromethyl)-4-(1-buten-4-yl)-6-chloro-1,4-dihydro-2H-3,1-benzoxazin-2-one] are greater than 100000 nM and 29 nM.

`C#CC1(C(F)(F)F)OC(=O)Nc2ccc(Cl)cc21` (racemic) [Compound 26, (+/-) 6-Chloro-4-ethynyl-4-(1,1,1-trifluoromethyl)-1,4-dihydro-2H-3,1-benzoxazin-2-one]: the values for the IC50 (against A17 RT; in experiment [1] (Table I)) were greater than 100000 nM and 0.24 nM, respectively.

For `O=C1Nc2ccc(Cl)cc2C(C#Cc2ccccc2[N+](=O)[O-])(C(F)(F)F)O1` (stereo not drawn) [Compound 6], the IC50 at A17 RT amounted to 19000 nM; in experiment [1] (Table I) it was 1700 nM. In the same order, the values of `Cc1ccc(C#CC2(C(F)(F)F)OC(=O)Nc3ccc(Cl)cc32)cc1` (stereo not drawn) [Compound 8] are 8470 nM and 163 nM. In the same order, the values of `COc1cccc(C#CC2(C(F)(F)F)OC(=O)Nc3ccc(Cl)cc32)c1` (stereo not drawn) [Compound 10] are 390 nM and 18 nM. For `COC(=O)/C=C(/OC)C1(C(F)(F)F)OC(=O)Nc2ccc(Cl)cc21` (stereo not drawn) [Compound 13], the IC50 is 100000 nM against A17 RT and 390 nM in experiment [1] (Table I). Consider `O=C1Nc2ccc(Cl)cc2C(CCCCl)(C(F)(F)F)O1` (stereo not drawn) [Compound 14], for which the IC50 against A17 RT was determined as 65000 nM; in experiment [1] (Table I) it was 130 nM. The matching figures for `CCC1(C(F)(F)F)OC(=O)Nc2ccc(Cl)cc21` (stereo not drawn) [Compound 17]: greater than 100000 nM and 2300 nM. Take `CCCCC1(C(F)(F)F)OC(=O)Nc2ccc(Cl)cc21` (stereo not drawn) [Compound 19]: the IC50 against A17 RT is 25000 nM; in experiment [1] (Table I), 24 nM. Turning to `O=C1Nc2ccc(Cl)cc2C(c2ccccc2)(C(F)(F)F)O1` (stereo not drawn) [Compound 20], the IC50 on A17 RT worked out at 100000 nM; in experiment [1] (Table I), 145 nM. For the compound `O=C1Nc2ccc(Cl)cc2C(Sc2ccccc2)(C(F)(F)F)O1` (stereo not drawn) [Compound 21], the results for the IC50 (on A17 RT; in experiment [1] (Table I)) were 125000 nM and 860 nM, respectively. On to `O=C1Nc2ccc(Cl)cc2C(CCc2ccccc2)(C(F)(F)F)O1` (stereo not drawn) [Compound 22], for which the IC50 was found to be 3650 nM against A17 RT and 55 nM in experiment [1] (Table I). Take `C=CC1(C(F)(F)F)OC(=O)Nc2ccc(Cl)cc21` (stereo not drawn) [Compound 23]: the IC50 is greater than 30000 nM against A17 RT and 1300 nM in experiment [1] (Table I). In the same order, the values of `C=CCC1(C(F)(F)F)OC(=O)Nc2ccc(Cl)cc21` (stereo not drawn) [Compound 25] are greater than 100000 nM and 220 nM. In the same order, the values of `O=C1Nc2ccc(Cl)cc2C(C#CCO)(C(F)(F)F)O1` (stereo not drawn) [Compound 27] are greater than 100000 nM and 550 nM.

In the case of `C#CC1(CCC)OC(=O)Nc2ccc(Cl)cc21` (stereo not drawn) [Compound 29], the results for the IC50 (on A17 RT; in experiment [1] (Table I)) were greater than 100000 nM and 1900 nM, respectively. On to `CCCC1(c2ccccc2)OC(=O)Nc2ccc(Cl)cc21` (stereo not drawn) [Compound 32], for which, in experiment [1] (Table I), the IC50 is 5400 nM.

Regarding `CCC1(c2ccccc2)OC(=O)Nc2ccc(Cl)cc21` (stereo not drawn) [Compound 33], in experiment [1] (Table I), the IC50 stood at 300 nM.

Regarding `CCCCC1(c2ccccc2)OC(=S)Nc2ccc(Cl)cc21` (stereo not drawn) [Compound 42], in experiment [1] (Table II), the IC50 turned out to be 1450 nM. On the same count and under the same terms, to `CCCC1(c2ccccc2)OC(=S)Nc2ccc(Cl)cc21` (stereo not drawn) [Compound 43] belongs 610 nM.
